# Data taken from ChEMBL document CHEMBL5149973, “Agaricus bisporus-Derived Glucosamine Hydrochloride Facilitates Skeletal Injury Repair through Bmp Signaling in Zebrafish Osteoporosis Model” (J Nat Prod, 2021).
# Activity calls are given as the source filed them. The calls are words filed in the database; no cut-off is given here.
# Key:
# [1] = species: Danio rerio; test: Induction of Zebrafish embryo skeletal development assessed as upregulation of col1a2 gene expression at 0.05 to 0.3 % measured after 72 hrs post fertilization by […] analysis; type: functional, tissue-based; settings: dose 0.05-0.3 %
# [2] = species: Danio rerio; test: Anti-osteoporosis activity in FAC-induced skeletal injury Zebrafish assessed as rescue of skeletal density in spine at 0.1 % measured for 10 day post fertilization; type: functional, organism-based
# [3] = Induction of Zebrafish embryo skeletal development assessed as mortality rate of embryo at 0.3 % measured after 72 hrs post fertilization by Alcian blue staining based assay; type: functional, Danio rerio
# [4] = species: Danio rerio; test: Anti-osteoporosis activity in FAC-induced skeletal injury Zebrafish larvae assessed as increase in Sox9b mRNA expression level measured for 10 day post fertilization by semiquantitative-PCR analysis; type: functional, organism-based; settings: Larva
# [5] = species: Danio rerio; test: Suppression of Bmp signaling in Zebrafish embryos assessed as decrease in Sox9a gene expression level at 0.1 % measured at 26 hrs post fertilization by semiquantitative PCR analysis; type: functional, tissue-based; settings: Embryo
# [6] = species: Danio rerio; test: Induction of Zebrafish embryo skeletal development assessed as upregulation of […] gene expression in dent at 0.01 to 0.3 % measured after 72 hrs post fertilization by […] analysis; type: functional, tissue-based; settings: dose 0.01-0.3 %
# [7] = species: Danio rerio; test: Suppression of Bmp signaling in Zebrafish embryos assessed as decrease in Sox9b gene expression level at 0.1 % measured at 26 hrs post fertilization by semiquantitative PCR analysis; type: functional, tissue-based; settings: Embryo
# [8] = species: Danio rerio; test: Anti-osteoporosis activity in FAC-induced skeletal injury Zebrafish assessed as increase in cumulative bone optical density in spine at 0.1 % measured for 10 day post fertilization; type: functional, organism-based
# [9] = species: Danio rerio; test: Induction of Zebrafish embryo skeletal development assessed as increase in Bmp4 mRNA expression level in gastrula stage at 0.05 to 0.1 % measured at 24 hrs post fertilization by ISH analysis; type: functional, tissue-based; settings: dose 0.05-0.1 %
# [10] = tested on: Osteoblast; test: Induction of osteoblast differentiation in transgenic osx mCherry Zebrafish embryo assessed as increase in Sox9b mRNA expression in fin at 0.1 % measured after 15 days by semiquantitative PCR analysis; type: functional, tissue-based; settings: Danio rerio, time 15.0 day
# [11] = tested on: Osteoblast; test: Induction of osteoblast differentiation in transgenic osx mCherry Zebrafish embryo assessed as increase in Col10a1a mRNA expression in fin at 0.1 % measured after 15 days by semiquantitative PCR analysis; type: functional; settings: Danio rerio, time 15.0 day
# [12] = Induction of Zebrafish embryo skeletal development assessed as fatality rate measured at percentage concentration incubated after 72 hrs post fertilization by Alcian blue staining based assay; type: functional, Danio rerio
# [13] = tested on: Osteoblast; test: Induction of osteoblast differentiation in transgenic osx mCherry Zebrafish embryo assessed as increase in Sox9a mRNA expression in fin at 0.1 % measured after 15 days by semiquantitative PCR analysis; type: functional, tissue-based; settings: Danio rerio, time 15.0 day
# [14] = species: Danio rerio; test: Induction of Zebrafish embryo skeletal development assessed as increase in Smad1 gene expression level in spine at 0.1 % measured for 0.75 to 24 hrs post fertilization by ISH analysis; type: functional, tissue-based; settings: time 0.75-24 hrs
# [15] = species: Danio rerio; test: Induction of Zebrafish Larva caudal fin regeneration assessed as increase in bone mass measured for 15 days by Calcein staining based assay; type: functional; settings: time 15.0 day
# [16] = species: Danio rerio; test: Anti-osteoporosis activity in FAC-induced skeletal injury Zebrafish larvae assessed as increase in Col10a1a mRNA expression level measured for 10 day post fertilization by semiquantitative-PCR analysis; type: functional, organism-based; settings: Larva
# [17] = species: Danio rerio; test: Anti-osteoporosis activity in FAC-induced skeletal injury Zebrafish larvae assessed as increase in BGP mRNA expression level measured for 10 day post fertilization by semiquantitative-PCR analysis; type: functional, organism-based; settings: Larva
# [18] = Induction of Zebrafish Larva cartilage development assessed as increase in H1 phenotype ratio at 0.1 % measured after 5 days post fertilization by Alcian blue staining based assay; type: functional, Danio rerio; settings: time 5 day
# [19] = tested on: Osteoblast; test: Induction of osteoblast differentiation in transgenic osx mCherry Zebrafish embryo assessed as increase in Col1a2 mRNA expression in fin at 0.1 % measured after 15 days by semiquantitative PCR analysis; type: functional, tissue-based; settings: Danio rerio, time 15.0 day
# [20] = species: Danio rerio; test: Anti-osteoporosis activity in FAC-induced skeletal injury Zebrafish assessed as rescue of skeletal density in head at 0.1 % measured for 10 day post fertilization; type: functional, organism-based
# [21] = tested on: Osteoblast; test: Induction of osteoblast differentiation in transgenic osx mCherry Zebrafish embryo assessed as increase in sp7 mRNA expression in distal fin rays at 0.1 % measured after 6 days by ISH analysis; type: functional; settings: Danio rerio, time 6.0 day
# [22] = species: Danio rerio; test: Induction of Zebrafish embryo skeletal development assessed as upregulation of col10a1a gene expression in branchiostegal at 0.01 to 0.3 % measured after 72 hrs post fertilization by […] analysis; type: functional; settings: dose 0.01-0.3 %
# [23] = species: Danio rerio; test: Induction of Zebrafish embryo skeletal development assessed as nuclear localization of p-Smad1 in tail at 0.1 % measured at 24 to 72 hrs post fertilization by DAPI staining based analysis; type: functional, tissue-based; settings: time 24-72 hrs
# [24] = Induction of Zebrafish Larva cartilage development assessed as increase in bone mineralization at 0.1 % measured at 6 days post fertilization by Alizarin red staining based assay; type: functional, Danio rerio; settings: time 6 day
# [25] = species: Danio rerio; test: Anti-osteoporosis activity in FAC-induced skeletal injury Zebrafish larvae assessed as rescue of bone damage measured for 10 day post fertilization by Alizarin red staining based assay; type: functional, organism-based; settings: Larva
# [26] = species: Danio rerio; test: Induction of Zebrafish embryo skeletal development assessed as increase in Bmp7a mRNA expression level in gastrula stage at 0.05 to 0.1 % measured at 24 hrs post fertilization by ISH analysis; type: functional, tissue-based; settings: dose 0.05-0.1 %
# [27] = species: Danio rerio; test: Induction of Zebrafish embryo skeletal development assessed as increase in Bmp2b mRNA expression level in gastrula stage at 0.05 to 0.1 % measured at 24 hrs post fertilization by ISH analysis; type: functional, tissue-based; settings: dose 0.05-0.1 %
# [28] = species: Danio rerio; test: Induction of Zebrafish embryo skeletal development assessed as nuclear localization of p-Smad5 in head at 0.1 % measured at 24 to 72 hrs post fertilization by DAPI staining based analysis; type: functional, tissue-based; settings: time 24-72 hrs
# [29] = species: Danio rerio; test: Suppression of Bmp signaling in Zebrafish embryos assessed as decrease in Bmp2b gene expression level at 0.1 % measured at 26 hrs post fertilization by semiquantitative PCR analysis; type: functional, tissue-based; settings: Embryo
# [30] = Induction of Zebrafish embryo skeletal development assessed as ventralized embryos at 0.3 % measured at 24 hrs post fertilization relative to control; type: functional, Danio rerio
# [31] = species: Danio rerio; test: Induction of Zebrafish embryo skeletal development assessed as increase in Bmp2b mRNA expression level in bud region at 0.1 to 0.3 % measured at 24 hrs post fertilization by ISH analysis; type: functional, tissue-based; settings: dose 0.1-0.3 %
# [32] = Induction of Zebrafish Larva cartilage development assessed as increase in bone mineralization at 0.3 % measured at 6 days post fertilization by Alizarin red staining based assay; type: functional, Danio rerio; settings: time 6 day
# [33] = Induction of Zebrafish embryo skeletal development assessed as mortality rate of embryo at 0.05 % measured after 72 hrs post fertilization by Alcian blue staining based assay; type: functional, Danio rerio
# [34] = species: Danio rerio; test: Suppression of Bmp signaling in Zebrafish tBr injected mRNA embryos assessed as reduction in slight loss of tail tissue at 2.5 uM measured at 26 hrs post fertilization; type: functional, Embryo; parameters: scale not given: the % may be the effect or the level left
# [35] = species: Danio rerio; test: Induction of Zebrafish embryo skeletal development assessed as nuclear localization of p-Smad1 in head at 0.1 % measured at 24 to 72 hrs post fertilization by DAPI staining based analysis; type: functional, tissue-based; settings: time 24-72 hrs
smiles,measurement,setting,value
Cl.N[C@@H]1[C@@H](O)[C@H](O)[C@@H](CO)O[C@H]1O,Activity,[1],Active
same,Activity,[2],Active
same,Activity,[3],28%
same,Activity,[4],Active
same,Activity,[5],Active
same,Activity,[6],Active
same,Activity,[7],Active
same,Activity,[8],Active
same,Activity,[9],Active
same,Activity,[10],Active
same,Activity,[11],Active
same,IC50,[12],0.324%
same,Activity,[13],Active
same,Activity,[14],Active
same,Activity,[15],Active
same,Activity,[16],Active
same,Activity,[17],Active
same,Activity,[18],40%
same,Activity,[19],Active
same,Activity,[20],Active
same,Activity,[21],Active
same,Activity,[22],Active
same,Activity,[23],Active
same,Activity,[24],88%
same,Activity,[25],Active
same,Activity,[26],Active
same,Activity,[27],Active
same,Activity,[28],Active
same,Activity,[29],Active
same,Activity,[30],20%
same,Activity,[31],Active
same,Activity,[32],79%
same,Activity,[33],16%
same,Activity,[34],80%
same,Activity,[35],Active
